The target of test [1] is T1, alpha 1A (h) (antagonist radioligand) (Homo sapiens, UniProt P35348).
T1 sequence (P35348 1-466): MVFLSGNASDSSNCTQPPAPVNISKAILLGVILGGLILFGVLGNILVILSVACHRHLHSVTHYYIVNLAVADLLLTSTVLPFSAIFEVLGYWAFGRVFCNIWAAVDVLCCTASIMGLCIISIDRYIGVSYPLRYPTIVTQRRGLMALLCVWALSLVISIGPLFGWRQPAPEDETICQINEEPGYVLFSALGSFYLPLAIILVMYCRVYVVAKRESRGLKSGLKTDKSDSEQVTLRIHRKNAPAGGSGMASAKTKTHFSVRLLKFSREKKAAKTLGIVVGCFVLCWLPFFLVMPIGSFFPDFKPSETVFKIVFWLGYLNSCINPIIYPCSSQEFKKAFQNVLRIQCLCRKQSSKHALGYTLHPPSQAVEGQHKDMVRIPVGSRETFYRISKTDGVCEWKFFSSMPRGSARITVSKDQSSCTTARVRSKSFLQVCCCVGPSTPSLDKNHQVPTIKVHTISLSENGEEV
Put plainly: Receptor protein binding studies, alpha 1A. An excerpt:
(§1) The four 3,11b trans-dihydrotetrabenazine isomers (+)-α, (−)-α, (+)-β and (−)-β were subjected to specific binding assays to test their ability to bind to the receptors and transporter proteins described below. The results are set out in Table 1

Test [2] deals with T2, alpha 1D (h) (antagonist radioligand) (Homo sapiens, UniProt P25100).
T2 sequence (P25100 1-572): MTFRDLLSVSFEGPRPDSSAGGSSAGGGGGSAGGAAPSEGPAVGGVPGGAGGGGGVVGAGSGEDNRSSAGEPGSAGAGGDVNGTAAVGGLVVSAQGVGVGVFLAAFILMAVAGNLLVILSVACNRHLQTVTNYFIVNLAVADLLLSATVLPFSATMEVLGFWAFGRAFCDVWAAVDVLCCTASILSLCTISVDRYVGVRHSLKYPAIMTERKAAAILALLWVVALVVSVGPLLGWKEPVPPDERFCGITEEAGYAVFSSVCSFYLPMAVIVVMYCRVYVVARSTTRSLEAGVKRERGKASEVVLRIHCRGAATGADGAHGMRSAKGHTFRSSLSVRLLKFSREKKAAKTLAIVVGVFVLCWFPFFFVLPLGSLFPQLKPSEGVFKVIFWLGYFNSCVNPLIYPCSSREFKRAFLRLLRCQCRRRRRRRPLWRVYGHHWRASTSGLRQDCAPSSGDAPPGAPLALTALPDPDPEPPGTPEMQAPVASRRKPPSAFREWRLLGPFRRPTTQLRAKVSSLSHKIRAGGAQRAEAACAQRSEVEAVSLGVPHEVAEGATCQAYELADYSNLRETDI
Put plainly: Receptor protein binding studies, alpha 1D.
Description: as §1

In test [3] the target is T3, alpha 2C (h) (antagonist radioligand) (Homo sapiens, UniProt P18825).
T3 sequence (P18825 1-462): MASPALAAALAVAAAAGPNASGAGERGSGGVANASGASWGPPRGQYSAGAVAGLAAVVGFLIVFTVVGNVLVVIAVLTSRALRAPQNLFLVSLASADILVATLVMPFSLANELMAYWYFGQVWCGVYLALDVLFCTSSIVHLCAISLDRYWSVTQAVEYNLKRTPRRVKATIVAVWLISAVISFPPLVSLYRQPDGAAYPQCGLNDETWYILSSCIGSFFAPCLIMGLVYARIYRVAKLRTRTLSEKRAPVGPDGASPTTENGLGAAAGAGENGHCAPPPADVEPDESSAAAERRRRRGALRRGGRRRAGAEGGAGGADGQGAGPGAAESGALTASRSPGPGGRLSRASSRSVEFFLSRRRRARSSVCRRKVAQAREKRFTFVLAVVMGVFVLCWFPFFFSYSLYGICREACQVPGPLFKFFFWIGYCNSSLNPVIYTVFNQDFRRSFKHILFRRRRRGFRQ
Put plainly: Receptor protein binding studies, alpha 2C.
Description: as §1

Test [4] concerns the target D2S (h) (antagonist radioligand) (Homo sapiens, UniProt P14416). As to the kind of experiment: Receptor protein binding studies, D2S.
Description: as §1

Test [5] addresses T4, D4.4 (h) (antagonist radioligand) (Homo sapiens, UniProt P21917).
T4 sequence (P21917 1-419): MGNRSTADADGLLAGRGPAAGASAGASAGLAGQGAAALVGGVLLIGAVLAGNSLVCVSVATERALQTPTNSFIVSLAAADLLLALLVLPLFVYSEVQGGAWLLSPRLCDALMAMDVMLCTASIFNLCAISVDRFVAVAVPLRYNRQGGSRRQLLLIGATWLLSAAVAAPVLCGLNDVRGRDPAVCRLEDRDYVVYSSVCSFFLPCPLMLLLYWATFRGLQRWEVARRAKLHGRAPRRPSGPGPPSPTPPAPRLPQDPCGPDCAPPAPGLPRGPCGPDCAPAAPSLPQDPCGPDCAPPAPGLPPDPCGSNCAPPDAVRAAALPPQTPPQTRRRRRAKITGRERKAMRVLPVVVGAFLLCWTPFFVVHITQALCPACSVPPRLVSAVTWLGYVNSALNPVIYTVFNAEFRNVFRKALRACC
As to the kind of experiment: Receptor protein binding studies, D4.4.
Description: as §1

For test [6], the target named is mu (MOP) (h) (agonist radioligand) (Homo sapiens, UniProt P35372). As to the kind of experiment: Receptor protein binding studies, mu (MOP).
Description: as §1

Test [7] deals with T5, 5-HT2C (h) (agonist radioligand) (Homo sapiens, UniProt P28335).
T5 sequence (P28335 33-458): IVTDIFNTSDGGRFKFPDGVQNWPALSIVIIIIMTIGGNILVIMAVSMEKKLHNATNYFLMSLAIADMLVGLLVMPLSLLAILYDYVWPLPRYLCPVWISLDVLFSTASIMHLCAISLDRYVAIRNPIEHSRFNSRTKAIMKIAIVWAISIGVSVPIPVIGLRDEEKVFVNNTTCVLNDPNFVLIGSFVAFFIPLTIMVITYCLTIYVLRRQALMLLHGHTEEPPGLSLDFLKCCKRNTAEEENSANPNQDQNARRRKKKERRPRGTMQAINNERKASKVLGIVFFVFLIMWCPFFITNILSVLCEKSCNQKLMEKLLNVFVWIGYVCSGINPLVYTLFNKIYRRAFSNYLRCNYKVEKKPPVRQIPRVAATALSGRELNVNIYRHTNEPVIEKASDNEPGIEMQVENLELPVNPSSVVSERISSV
As to the kind of experiment: Receptor protein binding studies, 5-HT2C.
Description: as §1

In the next test the target is 5-HT6 (h) (Homo sapiens, UniProt P50406). As to the kind of experiment: Receptor protein binding studies, 5-HT6.
Description: as §1

Where [8] appears, read: CONC 1.0E−05 (unit not given), 10 μM.
The mark [9] stands for this setting: CONC 1.0E−06 (unit not given), 1 μM.

Sequence of mu (MOP) (h) (agonist radioligand) (P35372 whole entry): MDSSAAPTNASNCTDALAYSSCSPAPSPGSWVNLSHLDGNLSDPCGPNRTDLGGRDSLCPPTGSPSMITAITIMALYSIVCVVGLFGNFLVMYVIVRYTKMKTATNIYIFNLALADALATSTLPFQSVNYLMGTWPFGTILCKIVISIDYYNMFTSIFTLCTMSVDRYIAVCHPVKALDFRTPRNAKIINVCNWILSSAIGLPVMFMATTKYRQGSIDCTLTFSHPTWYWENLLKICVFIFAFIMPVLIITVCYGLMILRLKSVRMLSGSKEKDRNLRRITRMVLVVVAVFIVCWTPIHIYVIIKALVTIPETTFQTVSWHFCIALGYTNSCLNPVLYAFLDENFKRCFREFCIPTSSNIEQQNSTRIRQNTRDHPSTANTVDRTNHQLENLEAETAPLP
Sequence of D2S (h) (antagonist radioligand) (P14416 1-414 isoform P14416-2): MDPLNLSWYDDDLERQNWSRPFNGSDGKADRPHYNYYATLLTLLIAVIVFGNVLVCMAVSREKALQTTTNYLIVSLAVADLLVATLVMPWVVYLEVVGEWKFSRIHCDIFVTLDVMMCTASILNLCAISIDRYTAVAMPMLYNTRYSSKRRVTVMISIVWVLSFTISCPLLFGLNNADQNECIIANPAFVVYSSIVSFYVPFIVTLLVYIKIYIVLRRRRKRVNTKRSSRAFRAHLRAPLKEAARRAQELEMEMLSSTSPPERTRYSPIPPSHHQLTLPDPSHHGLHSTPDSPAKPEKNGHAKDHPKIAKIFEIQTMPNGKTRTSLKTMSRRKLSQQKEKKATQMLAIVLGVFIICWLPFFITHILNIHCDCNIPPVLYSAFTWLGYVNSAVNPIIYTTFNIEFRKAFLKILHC
Sequence of 5-HT6 (h) (P50406 whole entry): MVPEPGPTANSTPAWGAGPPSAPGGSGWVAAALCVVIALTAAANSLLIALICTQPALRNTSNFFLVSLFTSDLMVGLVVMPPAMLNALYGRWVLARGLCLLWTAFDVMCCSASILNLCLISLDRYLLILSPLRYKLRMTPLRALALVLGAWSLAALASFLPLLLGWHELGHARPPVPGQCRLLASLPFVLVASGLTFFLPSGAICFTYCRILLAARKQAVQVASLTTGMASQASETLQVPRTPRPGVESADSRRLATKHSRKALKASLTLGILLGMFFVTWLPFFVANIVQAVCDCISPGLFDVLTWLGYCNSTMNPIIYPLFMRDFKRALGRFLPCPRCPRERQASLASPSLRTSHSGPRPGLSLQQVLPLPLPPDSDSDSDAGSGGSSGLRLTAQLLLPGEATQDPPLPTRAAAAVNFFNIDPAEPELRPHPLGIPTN

As to (+)-α-dihydrotetrabenazine [(+)-Alpha], the “% Inhibition of specific binding” value is given as 12% in test [1] (CONC 1.0E−05 (unit not given)); 7% in test [1] (CONC 1.0E−06 (unit not given)); −10% in test [2] (CONC 1.0E−05 (unit not given)); 15% in test [2] (CONC 1.0E−06 (unit not given)); 5% in test [3] (CONC 1.0E−05 (unit not given)); 4% in test [3] (CONC 1.0E−06 (unit not given)). Besides, the “% Inhibition of specific binding” value was 7% in test [4] (CONC 1.0E−05 (unit not given)); −1% in test [4] (CONC 1.0E−06 (unit not given)); −7% in test [5] (setting [8]); −3% in test [5] (setting [9]); 5% in test [6] (CONC 1.0E−05 (unit not given)); 0% in test [6] (CONC 1.0E−06 (unit not given)). Besides, the “% Inhibition of specific binding” value in test [7] (CONC 1.0E−05 (unit not given)) is on record as 3%; in test [7] (CONC 1.0E−06 (unit not given)), −8%; on 5-HT6 (h) (CONC 1.0E−05 (unit not given)) it was 35%; at 5-HT6 (h) (CONC 1.0E−06 (unit not given)) it was −1%. In addition, the “activity at the dopamine D4 receptor (in words)” value (from here on “activity”) in test [5] was “essentially inactive”.
For the substance (+)-β-dihydrotetrabenazine [(+)-Beta], the “% Inhibition of specific binding” value in test [1] (CONC 1.0E−05 (unit not given)) is 33%; in test [1] (CONC 1.0E−06 (unit not given)), 2%; in test [2] (CONC 1.0E−05 (unit not given)), 20%; in test [2] (CONC 1.0E−06 (unit not given)) it was 18%; in test [3] (CONC 1.0E−05 (unit not given)), 12%; in test [3] (CONC 1.0E−06 (unit not given)), −7%. Moreover, the “% Inhibition of specific binding” value is listed as 7% in test [4] (CONC 1.0E−05 (unit not given)); −8% in test [4] (CONC 1.0E−06 (unit not given)); 2% in test [5] (setting [8]); −3% in test [5] (setting [9]); 2% in test [6] (CONC 1.0E−05 (unit not given)); 7% in test [6] (CONC 1.0E−06 (unit not given)). Also, the “% Inhibition of specific binding” value in test [7] (CONC 1.0E−05 (unit not given)) is listed as −5%; in test [7] (CONC 1.0E−06 (unit not given)) it was 2%; on 5-HT6 (h) (CONC 1.0E−05 (unit not given)), 6%; on 5-HT6 (h) (CONC 1.0E−06 (unit not given)), 15%. The “activity” value in test [5] was “essentially inactive”.
Consider (−)-α-dihydrotetrabenazine [(−)-Alpha], for which the “% Inhibition of specific binding” value in test [1] (CONC 1.0E−05 (unit not given)) is reported as 6%; in test [1] (CONC 1.0E−06 (unit not given)), 1%; in test [2] (CONC 1.0E−05 (unit not given)) it was 25%; in test [2] (CONC 1.0E−06 (unit not given)) it was 13%; in test [3] (CONC 1.0E−05 (unit not given)) it was 69%; in test [3] (CONC 1.0E−06 (unit not given)) it was 17%. Further, the “% Inhibition of specific binding” value in test [4] (CONC 1.0E−05 (unit not given)) is listed as 73%; in test [4] (CONC 1.0E−06 (unit not given)), 22%; in test [5] (setting [8]), 65%; in test [5] (setting [9]), 19%; in test [6] (CONC 1.0E−05 (unit not given)), 2%; in test [6] (CONC 1.0E−06 (unit not given)), 11%. The “% Inhibition of specific binding” value in test [7] (CONC 1.0E−05 (unit not given)) came out at 16%; in test [7] (CONC 1.0E−06 (unit not given)), 0%; at 5-HT6 (h) (CONC 1.0E−05 (unit not given)) it was 29%; on 5-HT6 (h) (CONC 1.0E−06 (unit not given)), 6%. Further, the “activity” value in test [5] is “significantly less active”.
